Experimental data from patent US6680025B2, “Device and method for photoactivation” (Cerus Corporation, priority 1989, dated 2004).
Marks after values point to notes of the source that are not given here.

Columns and labels:
calf thymus DNA [1] = experiment: Equilibrium dialysis dark binding (association constant); settings: for Ka: 4° C., five days, dark, isopsoralen:DNA base pair 1:15
Experimental: Equilibrium Dialysis was used to determine the association (“dark binding”) constants of AMIP, AMDMIP and MIP with calf thymus DNA. The tritium labelled isopsoralens were used for the experiment. The method was a modification of that of Isaacs et al. Biochemistry 16, 1058-1066 (1977).
Spectrapor 2 dialysis tubing (Spectrum) was pre-treated by boiling in saturated sodium bicarbonate then rinsed thoroughly with double distilled water. Calf thymus DNA (Sigma) was prepared at a concentration of 50 μg/ml in 1×TE. The samples were prepared by placing 1.0 ml of the DNA solution inside the bag and using enough isopsoralen to provide an isopsoralen:DNA base pair ratio of 1:15. The samples were prepared with the tritiated isopsoralen (“Drug”) placed either inside or outside of the dialysis bag (each sample was placed in a scintillation vial containing a small magnetic stir bar). The samples were stirred at 4° C. for five days in the dark. After this period the bags were removed, opened, and the radioactivity inside and outside the bag determined by scintillation counting. The concentration of the DNA was determined by measuring optical density at 260 nm. The […] constant (Ka) was calculated from this information (Table 9). Preparing the samples in duplicate with the isopsoralen both inside and outside the dialysis bag provided a check that the system had come to equilibrium at the end of the dialysis period (the amount of isopsoralen inside and outside the bag at equilibrium should be, and was, the same in both cases).
The association constant, Ka is defined here as [formula]
for the reaction P+DNA P:DNA where P=free drug in solution, DNA=DNA binding site for the drug, and P:DNA=drug associated with the DNA. The following summarizes the Ka values determined for the compounds: […]

calf thymus DNA [2] = experiment: Covalent photobinding to calf thymus DNA (Example 38); assay type: binding; settings: for actual concentration obtained empirically: nominal 100 μg/ml in calf thymus DNA/1×TE, counted after sitting overnight at room temperature
Experimental: FIG. 17 can again be referred to as a flow chart schematically showing the manner in which covalent binding was measured for the compounds synthesized by the methods of the present invention. ^3H-AMIP (3.1×10^5 cpm/μg), ^3H-AMDMIP (2.2×10^5 cpm/μg), and ^3H-MIP (2.1×10^5 cpm/μg) were added to 300 μl of calf thymus DNA (Sigma) in 1×TE buffer. All of the isopsoralen compounds were added at a nominal concentration of 100 μg/ml. However, actual concentrations obtained empirically (counted after sitting overnight at room temperature) were: ^3H-AMIP (105 μg/ml), ^3H-AMDMIP (115 μg/ml), and ^3H-MIP (<10 μg/ml).
To assess binding, three samples were prepared for each compound; two were irradiated (15 minutes at 25° C. with the CE-I device) while one was unirradiated as a control. Following irradiation, the samples were extracted four times with CHCl3 then precipitated twice. The final pellet was brought up in 2 ml of 1×TE buffer and resuspended by shaking at 40° C. overnight. 50 μl of each sample was then diluted to 0.5 mls with H2O. The concentration of DNA was determined by UV absorption (A260) and the amount of covalently bound isopsoralen (“adduct”) was determined by scintillation counting (3×100 μl aliquots). From these numbers, the following binding ratios (adducts: DNA base pair) were determined: […]

[3] = Solubility of photoreactive compounds in 1×TE; assay type: physicochemical; settings: excess compound heated 50-70° C., stirred at room temperature, filtered; optical density
Experimental: The solubilities of AMIP, AMDMIP, DMIP, MIP and isopsoralen (IP) were determined experimentally according to the scheme set forth in FIG. 5. To perform the solubility measurement, it was first necessary to establish known optical densities for a 1 μg/ml solution of each compound. These were determined by preparing either ethanolic or aqueous stocks of each compound at known concentrations in 1×TE, then measuring the optical density of each solution. From this information, the absorption of a 1 μg/ml solution was computed. Alternatively, the extinction coefficient may be thus determined and used in the same fashion. In this manner, the following absorption data was collected:
Following this step, undissolved compound was removed by filtration using a 0.2 u nylon-66 syringe filter (Arco LC13; Gelman). The concentration of the remaining soluble compound was then determined by measuring the optical density of the filtrate and computing the solubility from the known optical density of a 1 μg/ml solution of that compound. The solubility of the compounds was thus determined to be as follows: […]

[4] = tritiated drug placed inside dialysis bag
[5] = tritiated drug placed outside dialysis bag

| Compound | Ka (DNA association constant) relative to AMDMIP (calf thymus DNA [1]) | Ka (calf thymus DNA [1]; [4]) | Ka (calf thymus DNA [1]; [5]) | actual concentration obtained empirically (calf thymus DNA [2]) | modification density relative to that provided by AMDMIP (calf thymus DNA [2]; photobinding at the same concentration) | Solubility in 1 × TE [3] |
| --- | --- | --- | --- | --- | --- | --- |
| NCc1cc2occc2c2oc(=O)ccc12 [AMIP, 5-Aminomethylisopsoralen] | 28% | 2.96 × 10^4 | 2.21 × 10^4 | 105 µg/mL | 43% | 21,000 ug/ml |
| Cc1cc2occc2c2oc(=O)ccc12 [MIP, 5-Methylisopsoralen] | – | 9.08 × 10^3 | 2.07 × 10^3 | < 10 µg/mL | – | nd (nd = not detectable (solubility was less than 1 μg/ml)) |
| Cc1oc2ccc3c(C)cc(=O)oc3c2c1CN [AMDMIP, 4′-Aminomethyl-4,5′-dimethylisopsoralen] | – | 7.66 × 10^4 | 1.07 × 10^5 | 115 µg/mL | – | >22,700* ug/ml |
